Measurements from publication PMC11684029, “Discovery of VU6024578/BI02982816: An mGlu1 Positive Allosteric Modulator with Efficacy in Preclinical Antipsychotic and Cognition Models” (Journal of Medicinal Chemistry, 2024).

Key:
human mGlu1 = target: T1, human mGlu1 (Homo sapiens, UniProt Q13255); test: mGlu1 calcium mobilization (triple-add) PAM assay; format: cell-based
T1 construct: expressed in transfected cells; pcDNA5/TO)
Experimental: Tetracycline-inducible human mGlu1 WT-T-REx-293 cells (Wu et al, Science 2014) were cultured at 37 °C in Dulbecco’s Modified Eagle Medium (DMEM) growth medium containing 10% Tet-tested FBS, 2 mM L-glutamine, 20 mM HEPES, 0.1 mM nonessential amino acids, 1 mM sodium pyruvate, antibiotic/antimycotic, 100 μg/mL hygromycin and 5 μg/mL blasticidin in the presence of 5% CO2. […] The mutant stable cell lines were generated in the same manner as the WT as previously described and cultured in the growth medium described above.
To determine the potency of mGlu1 PAMs in calcium assays, Ca flux was measured as previously described in ACS Chem. Bio. 2014, 9, 2334–2346. Briefly, the day before the assay, human mGlu1 WT-T-REx-293 cells were plated in black-walled, clear-bottomed, poly-D-lysine coated 96-well plates at 80,000 cells/100 μL assay medium (DMEM supplemented with 10% dialyzed FBS, 20 mM HEPES, and 1 mM sodium pyruvate) containing 50 ng/mL of tetracycline to induce mGlu1 expression. The next day, media was removed and the cells were incubated with 50 μL of 1.15 μM Fluo-4 AM dye solution prepared in assay buffer (buffer (Hank’s balanced salt solution, 20 mM HEPES, and 2.5 mM probenecid) for 45 min at 37 °C, the dye was removed and replaced with 45 μL of assay buffer. Then, calcium flux was measured using Flexstation II (Molecular Devices, Sunnyvale, CA). Compounds serially diluted at half log concentrations in DMSO were further diluted in assay buffer. The compounds or DMSO vehicle were added to cells and incubated for 2.5 min and an EC20 concentration of glutamate was added and incubated for 1 min. An ECmax concentration of glutamate was also added to cells that were incubated with DMSO vehicle to accurately calculate the EC20 calcium response. Data were normalized by subtracting the basal florescent peak before EC20 agonist addition from the maximal peak elicited by EC20 agonist and PAMs. Using GraphPad Prism 5.0, the concentration response curves were generated and the potencies of the mGlu1 PAMs were determined.

rat mGlu1 = rat mGlu1 (Rattus norvegicus, UniProt P23385); test: mGlu1 calcium mobilization PAM assay; format: cell-based; details: PAM, calcium flux
Chain of rat mGlu1 (P23385 19-1199): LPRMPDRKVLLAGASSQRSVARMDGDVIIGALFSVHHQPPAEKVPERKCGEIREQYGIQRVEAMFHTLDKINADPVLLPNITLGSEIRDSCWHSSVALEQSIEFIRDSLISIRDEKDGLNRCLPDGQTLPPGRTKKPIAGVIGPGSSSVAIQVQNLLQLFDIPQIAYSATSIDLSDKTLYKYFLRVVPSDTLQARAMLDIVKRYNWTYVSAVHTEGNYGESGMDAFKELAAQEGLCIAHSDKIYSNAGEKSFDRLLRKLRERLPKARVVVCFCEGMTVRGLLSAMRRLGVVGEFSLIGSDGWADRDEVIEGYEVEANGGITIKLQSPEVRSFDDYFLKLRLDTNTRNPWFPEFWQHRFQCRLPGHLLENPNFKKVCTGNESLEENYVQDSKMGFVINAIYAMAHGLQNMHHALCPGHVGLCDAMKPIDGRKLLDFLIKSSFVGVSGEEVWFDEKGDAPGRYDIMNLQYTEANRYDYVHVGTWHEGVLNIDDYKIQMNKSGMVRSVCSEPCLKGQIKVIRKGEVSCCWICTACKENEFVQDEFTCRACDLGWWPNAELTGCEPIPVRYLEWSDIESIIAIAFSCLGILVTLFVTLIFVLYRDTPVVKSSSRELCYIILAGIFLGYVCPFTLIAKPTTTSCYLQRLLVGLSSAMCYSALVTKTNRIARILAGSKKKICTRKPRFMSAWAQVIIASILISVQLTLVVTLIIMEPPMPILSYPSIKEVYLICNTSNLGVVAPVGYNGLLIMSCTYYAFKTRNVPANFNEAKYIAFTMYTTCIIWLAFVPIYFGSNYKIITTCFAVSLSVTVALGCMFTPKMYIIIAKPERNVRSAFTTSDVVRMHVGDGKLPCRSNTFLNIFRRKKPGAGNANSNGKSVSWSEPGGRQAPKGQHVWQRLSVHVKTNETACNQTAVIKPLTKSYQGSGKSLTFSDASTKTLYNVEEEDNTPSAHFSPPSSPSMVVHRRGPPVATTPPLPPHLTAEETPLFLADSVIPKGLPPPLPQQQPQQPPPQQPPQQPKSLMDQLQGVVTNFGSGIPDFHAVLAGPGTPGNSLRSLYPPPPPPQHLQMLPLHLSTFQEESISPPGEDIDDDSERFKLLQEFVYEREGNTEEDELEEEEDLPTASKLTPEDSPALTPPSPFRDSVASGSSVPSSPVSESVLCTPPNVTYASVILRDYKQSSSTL

[1] = PAM, calcium flux, EC20 glutamate

T1 sequence (Q13255 19-1194): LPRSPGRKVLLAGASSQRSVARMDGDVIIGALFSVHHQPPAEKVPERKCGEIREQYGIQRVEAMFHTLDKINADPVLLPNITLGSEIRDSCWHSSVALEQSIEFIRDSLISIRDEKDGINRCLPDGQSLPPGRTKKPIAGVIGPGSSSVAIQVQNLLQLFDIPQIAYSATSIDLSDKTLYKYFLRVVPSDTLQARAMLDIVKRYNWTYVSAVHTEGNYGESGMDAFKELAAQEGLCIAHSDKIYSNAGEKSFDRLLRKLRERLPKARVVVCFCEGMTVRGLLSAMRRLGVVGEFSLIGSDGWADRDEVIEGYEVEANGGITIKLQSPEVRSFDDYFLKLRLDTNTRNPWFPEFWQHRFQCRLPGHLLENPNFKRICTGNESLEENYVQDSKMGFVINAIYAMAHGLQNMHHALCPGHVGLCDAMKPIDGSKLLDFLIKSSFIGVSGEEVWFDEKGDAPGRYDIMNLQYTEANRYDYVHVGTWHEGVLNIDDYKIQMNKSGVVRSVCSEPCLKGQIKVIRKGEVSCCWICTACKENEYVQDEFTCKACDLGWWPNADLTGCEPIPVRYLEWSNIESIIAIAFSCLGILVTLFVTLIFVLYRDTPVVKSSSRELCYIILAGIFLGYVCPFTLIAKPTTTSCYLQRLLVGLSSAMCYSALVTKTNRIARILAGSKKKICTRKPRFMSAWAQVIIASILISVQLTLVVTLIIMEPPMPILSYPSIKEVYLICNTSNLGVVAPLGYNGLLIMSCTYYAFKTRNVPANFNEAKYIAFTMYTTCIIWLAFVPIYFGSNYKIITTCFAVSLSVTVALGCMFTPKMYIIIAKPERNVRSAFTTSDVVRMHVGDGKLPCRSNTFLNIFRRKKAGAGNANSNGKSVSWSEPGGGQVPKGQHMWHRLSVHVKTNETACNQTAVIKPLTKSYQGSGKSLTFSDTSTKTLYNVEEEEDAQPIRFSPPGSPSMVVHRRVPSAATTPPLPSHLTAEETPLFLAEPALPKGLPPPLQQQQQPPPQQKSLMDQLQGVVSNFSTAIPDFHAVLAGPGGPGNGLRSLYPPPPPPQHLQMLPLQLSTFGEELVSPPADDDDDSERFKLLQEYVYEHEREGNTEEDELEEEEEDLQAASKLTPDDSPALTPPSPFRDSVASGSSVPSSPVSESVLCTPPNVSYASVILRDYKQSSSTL

Row | SMILES | EC50 (human mGlu1; [1]) | human mGlu1 Glumax (human mGlu1; [1]) | improvement in mGlu1 PAM potency over HTS hit 6 (human mGlu1; human mGlu1 EC50 ratio) | EC50 (rat mGlu1) | rat mGlu1 Glumax (rat mGlu1) | human mGlu1 EC50 (Glumax), result in words (human mGlu1; [1])
1 | COc1ccc(Cl)cc1C(=O)NCc1cnn2ccccc12 [Compound 6, 5-Chloro-2-methoxy-N-(pyrazolo[1,5-a]pyridin-3-ylmethyl)benzamide] | > 10000 nM | 71% | – | – | – | –
2 | COc1ccc(OC)c(C(=O)NCc2cnn3ccccc23)c1 [Compound 9a, 2,5-Dimethoxy-N-(pyrazolo[1,5-a]pyridin-3-ylmethyl)benzamide] | 5120 nM | 45% | – | – | – | –
3 | COc1ccc(C)cc1C(=O)NCc1cnn2ccccc12 [Compound 9b, 2-Methoxy-5-methyl-N-(pyrazolo[1,5-a]pyridin-3-ylmethyl)benzamide] | 7380 nM | 62% | – | – | – | –
4 | Cc1ccc(Cl)cc1C(=O)NCc1cnn2ccccc12 [Compound 9c, 5-Chloro-2-methyl-N-(pyrazolo[1,5-a]pyridin-3-ylmethyl)benzamide] | 6060 nM | 47% | – | – | – | –
5 | O=C(NCc1cnn2ccccc12)c1cc(Cl)ccc1Cl [Compound 9d, 2,5-Dichloro-N-(pyrazolo[1,5-a]pyridin-3-ylmethyl)benzamide] | 3790 nM | 46% | ~3 fold | – | – | –
6 | O=C(NCc1cnn2ccccc12)c1cc(-c2ccccc2)ccc1Cl [Compound 9f, 4-Chloro-N-(pyrazolo[1,5-a]pyridin-3-ylmethyl)-[1,1′-biphenyl]-3-carboxamide] | 434 nM | 33% | – | 1010 nM | 48% | –
7 | O=C(NCc1cnn2ccccc12)c1cc(-c2cccs2)ccc1Cl [Compound 9g, 2-Chloro-N-(pyrazolo[1,5-a]pyridin-3-ylmethyl)-5-(thiophen-2-yl)benzamide] | 291 nM | 51% | – | 369 nM | 75% | –
8 | O=C(NCc1cnn2ccccc12)c1cc(-c2ccsc2)ccc1Cl [Compound 9h, 2-Chloro-N-(pyrazolo[1,5-a]pyridin-3-ylmethyl)-5-(thiophen-3-yl)benzamide] | 641 nM | 35% | – | – | – | –
9 | O=C(NCc1cnn2ccccc12)c1cc(-c2nccs2)ccc1Cl [Compound 9i, 2-Chloro-N-(pyrazolo[1,5-a]pyridin-3-ylmethyl)-5-(thiazol-2-yl)benzamide] | 790 nM | 61% | – | 3150 nM | 79% | –
10 | Cn1nccc1-c1ccc(Cl)c(C(=O)NCc2cnn3ccccc23)c1 [Compound 9j, 2-Chloro-5-(1-methyl-1H-pyrazol-5-yl)-N-(pyrazolo[1,5-a]pyridin-3-ylmethyl)benzamide] | – | – | – | – | – | Inactive
11 | O=C(NCc1noc(C2CC2)n1)c1cc(-c2ccco2)ccc1Cl [Compound 15c, 2-Chloro-N-((5-cyclopropyl-1,2,4-oxadiazol-3-yl)methyl)-5-(furan-2-yl)benzamide] | 10000 nM | 44% | – | – | – | –
12 | O=C(NCc1nc(C2CC2)no1)c1cc(-c2ccco2)ccc1Cl [Compound 15d, 2-Chloro-N-((3-cyclopropyl-1,2,4-oxadiazol-5-yl)methyl)-5-(furan-2-yl)benzamide] | 714 nM | 80% | – | 509 nM | 95% | –
